Laboratory results: ChEMBL document CHEMBL3046520, “Synthesis of novel 2-phenyl-3-[2-(substituted amino) ethylamino] quinazolin-4(3H)-ones as a new class of H1-antihistaminic agents” (Med Chem Res, 2013)

Columns and labels:
Mus musculus [1] = assay: Induction of sedation-hypnotic activity in Mus musculus Albino Swiss (mouse) assessed as reduction in locomotor activity at 5 mg/kg, po measured after 3 hr by actophotometer; type: organism-based; design: dose 5 mg/kg, route oral; scale not given: the % may be the effect or the level left; details: in vivo
Mus musculus [2] = assay: Induction of sedation-hypnotic activity in Mus musculus Albino Swiss (mouse) assessed as reduction in locomotor activity at 5 mg/kg, po measured after 2 hr by actophotometer; type: organism-based; design: dose 5 mg/kg, route oral; scale not given: the % may be the effect or the level left; details: in vivo
Mus musculus [3] = assay: Induction of sedation-hypnotic activity in Mus musculus Albino Swiss (mouse) assessed as reduction in locomotor activity at 5 mg/kg, po measured after 1 hr by actophotometer; type: organism-based; design: dose 5 mg/kg, route oral; scale not given: the % may be the effect or the level left; details: in vivo
Mus musculus [4] = assay: Induction of sedation-hypnotic activity in Mus musculus Albino Swiss (mouse) assessed as reduction in locomotor activity at 5 mg/kg, po measured after 0.5 hr by actophotometer; type: organism-based; design: dose 5 mg/kg, route oral; scale not given: the % may be the effect or the level left; details: in vivo
Cavia porcellus [5] = assay: In vivo H1-antihistaminic activity in Cavia porcellus Dunkin-Hartley (guinea pig) assessed as time of onset of convulsion at 10 mg/kg, po; type: functional
Cavia porcellus [6] = assay: In vivo H1-antihistaminic activity in conscious Cavia porcellus Dunkin-Hartley (guinea pig) assessed as protection against histamine-induced bronchospasm at 10 mg/kg, po; type: functional
Cavia porcellus [7] = assay: In vivo H1-antihistaminic activity in Cavia porcellus Dunkin-Hartley (guinea pig) assessed as time of onset of convulsion at 25 mg/kg, ip; type: functional; details: route intraperitoneal
Cavia porcellus [8] = assay: In vivo H1-antihistaminic activity in conscious Cavia porcellus Dunkin-Hartley (guinea pig) assessed as protection against histamine-induced bronchospasm at 25 mg/kg, ip; type: functional; details: route intraperitoneal

What does the source list for `O=c1c2ccccc2nc(-c2ccccc2)n1NCCN1CCOCC1`?
Activity (Mus musculus [1]): 7.32%; Activity (Mus musculus [2]): 10.41%; Activity (Mus musculus [3]): 9.32%; Activity (Mus musculus [4]): 8.43%; Time (Cavia porcellus [5]): 428 s; Activity (Cavia porcellus [6]): 73.36%

Which Activity (Mus musculus [1]) does the source give for `CN(C)CCC(c1ccc(Cl)cc1)c1ccccn1.O=C(O)/C=C\C(=O)O` (stereo unspecified) [CHLORPHENIRAMINE MALEATE] here?
Its Activity is 29.58%.

And the Activity (Mus musculus [2])?
Its Activity is 34.8%.

What about the Activity (Mus musculus [3]) of the same compound?
Its Activity is 38.8%.

What about the Activity (Mus musculus [4]) of the same compound?
The Activity was 32.04%.

And the Time (Cavia porcellus [7])?
The Time was 394 s.

What about the Activity (Cavia porcellus [8]) of the same compound?
Its Activity is 70.09%.

Which results are given for `COc1cccc(NCCNn2c(-c3ccccc3)nc3ccccc3c2=O)c1`?
Activity (Mus musculus [1]): 9.32%; Activity (Mus musculus [2]): 11.63%; Activity (Mus musculus [3]): 10.89%; Activity (Mus musculus [4]): 10.35%; Time (Cavia porcellus [5]): 382 s; Activity (Cavia porcellus [6]): 70.15%

For `O=c1c2ccccc2nc(-c2ccccc2)n1NCCNc1ccc([N+](=O)[O-])cc1`, which Activity (Mus musculus [1]) is on record?
Its Activity is 8.32%.

And the Activity (Mus musculus [2])?
The Activity was 11.04%.

And the Activity (Mus musculus [3])?
The Activity was 9.98%.

And the Activity (Mus musculus [4])?
Its Activity is 9.51%.

What about the Time (Cavia porcellus [5]) of the same compound?
Its Time is 394 s.

What about the Activity (Cavia porcellus [6]) of the same compound?
The Activity was 71.06%.

How did the Activity (Mus musculus [1]) turn out when `O=c1c2ccccc2nc(-c2ccccc2)n1NCCN1CCNCC1` was run?
The Activity was 8.21%.

What about the Activity (Mus musculus [2]) of the same compound?
The Activity was 10.79%.

And the Activity (Mus musculus [3])?
Its Activity is 10.42%.

What about the Activity (Mus musculus [4]) of the same compound?
The Activity was 9.35%.

What about the Time (Cavia porcellus [5]) of the same compound?
Its Time is 433 s.

What about the Activity (Cavia porcellus [6]) of the same compound?
Its Activity is 73.67%.

Which results are given for `O=c1c2ccccc2nc(-c2ccccc2)n1NCCNc1nccs1`?
Activity (Mus musculus [1]): 7.43%; Activity (Mus musculus [2]): 9.85%; Activity (Mus musculus [3]): 9.52%; Activity (Mus musculus [4]): 8.21%; Time (Cavia porcellus [5]): 409 s; Activity (Cavia porcellus [6]): 72.12%

How did the Activity (Mus musculus [1]) turn out when `O=c1c2ccccc2nc(-c2ccccc2)n1NCCNCc1ccccc1` was run?
The Activity was 8.9%.

What about the Activity (Mus musculus [2]) of the same compound?
Its Activity is 12.31%.

And the Activity (Mus musculus [3])?
Its Activity is 11.52%.

And the Activity (Mus musculus [4])?
Its Activity is 10.42%.

And the Time (Cavia porcellus [5])?
The Time was 366 s.

And the Activity (Cavia porcellus [6])?
Its Activity is 68.85%.

`COc1ccc(NCCNn2c(-c3ccccc3)nc3ccccc3c2=O)cc1` was tested. Which Activity (Mus musculus [1]) did it give?
The Activity was 8.53%.

And the Activity (Mus musculus [2])?
Its Activity is 10.94%.

What about the Activity (Mus musculus [3]) of the same compound?
Its Activity is 10.43%.

What about the Activity (Mus musculus [4]) of the same compound?
Its Activity is 9.03%.

And the Time (Cavia porcellus [5])?
Its Time is 398 s.

What about the Activity (Cavia porcellus [6]) of the same compound?
The Activity was 71.35%.

How did the Activity (Mus musculus [1]) turn out when `Cc1ccccc1NCCNn1c(-c2ccccc2)nc2ccccc2c1=O` was run?
The Activity was 7.13%.

And the Activity (Mus musculus [2])?
Its Activity is 10.38%.

What about the Activity (Mus musculus [3]) of the same compound?
Its Activity is 9.88%.

And the Activity (Mus musculus [4])?
The Activity was 9.42%.

What about the Time (Cavia porcellus [5]) of the same compound?
Its Time is 375 s.

And the Activity (Cavia porcellus [6])?
Its Activity is 69.6%.

For `O=c1c2ccccc2nc(-c2ccccc2)n1NCCNc1ccc(Cl)cc1`, which Activity (Mus musculus [1]) is on record?
Its Activity is 6.48%.

What about the Activity (Mus musculus [2]) of the same compound?
Its Activity is 10.73%.

And the Activity (Mus musculus [3])?
The Activity was 9.42%.

What about the Activity (Mus musculus [4]) of the same compound?
Its Activity is 8.28%.

What about the Time (Cavia porcellus [5]) of the same compound?
The Time was 416 s.

And the Activity (Cavia porcellus [6])?
Its Activity is 72.12%.

For `O=c1c2ccccc2nc(-c2ccccc2)n1NCCNc1ccccc1`, which Activity (Mus musculus [1]) is on record?
The Activity was 10.11%.

And the Activity (Mus musculus [2])?
Its Activity is 12.32%.

And the Activity (Mus musculus [3])?
The Activity was 11.55%.

And the Activity (Mus musculus [4])?
Its Activity is 11.32%.

And the Time (Cavia porcellus [5])?
The Time was 402 s.

What about the Activity (Cavia porcellus [6]) of the same compound?
The Activity was 71.64%.
